Measurements published in PubChem BioAssay (NCI).
Several values for one entry are separate records, joined by “and”; a condition that tells them apart may be missing. Equal entries are not always repeated.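 Exposure lasted 48 hours, with cells grown in 96-well plates and compounds tested at five concentrations. GI50: concentration for 50% inhibition of growth. TGI: concentration producing complete growth inhibition.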

Legend:
Test in all cases: NCI tumour cell line growth inhibition, 48 h
A549 NSCLC = test system: A549 NSCLC
LOX IMVI melanoma = test system: LOX IMVI melanoma
M14 melanoma = test system: M14 melanoma
MDA-MB-435 = test system: MDA-MB-435
NCI-H226 lung = test system: NCI-H226 lung
NCI-H522 lung = test system: NCI-H522 lung
OVCAR-5 ovarian = test system: OVCAR-5 ovarian
SK-MEL-5 melanoma = test system: SK-MEL-5 melanoma
SNB-19 CNS = test system: SNB-19 CNS
U251 CNS = test system: U251 CNS

Row | Structure (SMILES) | TGI (A549 NSCLC) | TGI (LOX IMVI melanoma) | TGI (M14 melanoma) | TGI (MDA-MB-435) | TGI (NCI-H226 lung) | TGI (NCI-H522 lung) [µM] | TGI (OVCAR-5 ovarian) | TGI (SK-MEL-5 melanoma) | TGI (SNB-19 CNS) | TGI (U251 CNS) | GI50 (A549 NSCLC) [µM] | GI50 (LOX IMVI melanoma) [µM] | GI50 (M14 melanoma) [µM] | GI50 (MDA-MB-435) [µM] | GI50 (NCI-H226 lung) [µM] | GI50 (OVCAR-5 ovarian) [µM] | GI50 (SK-MEL-5 melanoma) [µM] | GI50 (SNB-19 CNS) [µM] | GI50 (U251 CNS) [µM]
1 | Cn1c2ncccc2n2c(=O)cc(O)cc12 | > 100 µM | > 100 µM | > 100 µM | > 100 µM | > 100 µM | > 100 | > 100 µM | > 100 µM | > 100 µM | > 100 µM |  |  |  |  |  |  |  |  | 
2 | O=C1c2ccccc2C(=O)c2c1oc1cc(O)c(Cl)cc21 | 9.46 µM | 7.88 µM | 6.88 µM | 3.34 µM | 34.3 µM | 26.9 | 23.9 µM | 1.58 µM | 28 µM | 22.3 µM |  |  |  |  |  |  |  |  | 
3 | CCC1=CC(OCc2ccccc2)C(CCN(Cc2ccccc2)C(=O)OCc2ccccc2)C1 (centres undefined) | 32.1 µM | 32.7 µM | 27.8 µM | 32.7 µM | 36.5 µM | 25.9 | 36.9 µM | 37.8 µM | 30.9 µM | 62 µM |  |  |  |  |  |  |  |  | 
4 | O=c1ccn(C/C=C/c2ccccc2)c(=S)n1C/C=C/c1ccccc1 | > 100 µM | > 100 µM | > 100 µM | > 100 µM | > 100 µM | > 100 | > 100 µM | > 100 µM | > 100 µM | > 100 µM |  |  |  |  |  |  |  |  | 
5 | CC1(C)CC(=O)c2c(-c3ccc(Cl)cc3)c(C#N)c(=S)n(C3OC(CO)C(O)C(O)C3O)c2C1 (centres undefined) | > 100 µM | 49.4 µM | > 100 µM | 80.8 µM | 73 µM | > 100 | > 100 µM | 34.8 µM | > 100 µM | > 100 µM |  |  |  |  |  |  |  |  | 
6 | C1CSCCSCCSCCSCCS1 | > 100 µM | > 100 µM | > 100 µM | > 100 µM | > 100 µM | > 100 | > 100 µM | > 100 µM | > 100 µM | > 100 µM |  |  |  |  |  |  |  |  | 
7 | CN(C)c1n2c3ccc([N+](=O)[O-])cc3n3c(N(C)C)[n+]4ccccc4c3c2c2cccc[n+]12 | > 100 µM | > 100 µM | > 100 µM | > 100 µM | > 100 µM | > 100 | > 100 µM | > 100 µM | > 100 µM | > 100 µM |  |  |  |  |  |  |  |  | 
8 | CN1N=C(c2ccncc2)OC1c1cccc(F)c1 (centres undefined) | > 100 µM | > 100 µM | > 100 µM | > 100 µM | > 100 µM | > 100 | > 100 µM | > 100 µM | > 100 µM | > 100 µM |  |  |  |  |  |  |  |  | 
9 | COc1ccc(COCC[C@H](C)OC2OC(CO[Si](C)(C)C(C)(C)C)C(O)C(O)C2O)cc1 (some centres undefined) | > 100 µM | > 100 µM | > 100 µM | > 100 µM | > 100 µM | > 100 | > 100 µM | > 100 µM | > 100 µM | > 100 µM |  |  |  |  |  |  |  |  | 
10 | O=C1CC(n2ccnc2)c2c(Cl)sc(Cl)c21 (centres undefined) | > 64.7 µM | 19.2 µM | 35.3 µM | 49.6 µM | 77.1 µM | 17.1 | 48.1 µM | 41.2 µM | 38.3 µM | 35.6 µM |  |  |  |  |  |  |  |  | 
11 | COc1ccc2nc3cccc([N+](=O)[O-])c3c(NCCC(=O)O)c2c1 | > 10 µM | > 10 µM | > 10 µM | > 10 µM | > 10 µM | > 10 | > 10 µM | > 10 µM | > 10 µM | > 10 µM |  |  |  |  |  |  |  |  | 
12 | Cc1cn(C2CC(O)C(Cn3nncc3Cn3cnc4c(N)ncnc43)O2)c(=O)[nH]c1=O (centres undefined) | > 100 µM | > 100 µM | > 100 µM | > 100 µM | > 100 µM | > 100 | > 100 µM | > 100 µM | > 100 µM | > 100 µM |  |  |  |  |  |  |  |  | 
13 | N#Cc1c(-c2ccccc2)cn(C(=O)c2ccccc2)c1N | > 100 µM | > 100 µM | > 100 µM | > 100 µM | > 100 µM | > 100 | > 100 µM | > 100 µM | > 100 µM | > 100 µM |  |  |  |  |  |  |  |  | 
14 | c1ccc2c(c1)CCN1CCc3ccccc3C1C2 (centres undefined) | > 100 µM | > 100 µM | 82.1 µM | > 100 µM | 93.1 µM | > 100 | > 100 µM | 37 µM | > 100 µM | > 100 µM |  |  |  |  |  |  |  |  | 
15 | CSC12c3cc(C)n(-c4ccc(I)cc4)c3CC(C)(C)CN1C(=O)C2Oc1ccccc1 (centres undefined) | > 100 µM | > 100 µM | > 100 µM | > 100 µM | > 100 µM | > 100 | > 100 µM | > 100 µM | > 100 µM | > 100 µM |  |  |  |  |  |  |  |  | 
16 | COC(=O)CN1Cc2cc(C)cc(c2O)CN(CC(=O)OC)Cc2cc(C)cc(c2O)CN(CC(=O)OC)Cc2cc(C)cc(c2O)CN(CC(=O)OC)Cc2cc(C)cc(c2O)C1 | 50 µM and > 100 µM | 50 µM and > 100 µM | 18.7 µM and 51.5 µM | 50 µM and > 100 µM | 47.2 µM and > 100 µM | > 100 | 50 µM and > 100 µM | 50 µM and > 100 µM | 50 µM and > 100 µM | 50 µM and > 100 µM | 46.4 | 8.68 | 17.7 | 45.9 | 11.1 | 5.26 | 37.7 | 18.3 | 30.9
